{"source": "patent US20040077674A1", "about": "“Mappicine analogs, intermediates in the synthesis of mappicine analogs and methods of synthesis of mappicine analogs” (priority 2002, published 2004)", "data": [{"molecular_target": "T1, RNase H activity of HIV reverse transcriptase (Human immunodeficiency virus type 1 group M subtype B, UniProt P03366)", "T1 construct": "2.5 nM of the p51/p66 RT heterodimer in the assay; made in house", "test": "Fluorescence (FRET)-based RNase H assay of HIV reverse transcriptase", "format": "biochemical, HIV-1", "settings": "20 μM inhibitor concentration", "experimental": "Recently, a fluorescence-based assay to perform screens in search of HIV RNase H inhibitors has been developed. The assay, which is carried out in 96-well microplates and is adaptable to robotics, is the first high-throughput screen for RNase H and is described in further detail in the Experimental section. HIV-1 RT and human RNase H were cloned, and thus comparative analysis of inhibitor action could be conducted simultaneously.\nThe assay for RNase H activity of HIV reverse transcriptase was the fluorescence-based assay described in detail in the Experimental section and discussed in U.S. Provisional Patent Application Serial No. 60/318,359. Assays were carried out in the absence and in the presence of mappicine analogs (10 μM or 20 μM final concentration). The results are reported as % residual activity, which is the RNase H activity of the enzyme in the presence of the mappicine analog divided by the RNase H activity of the enzyme in the absence of the mappicine analog, multiplied by 100. Alternatively, the results are reported as % inhibition, which is calculated as the ratio of the RNase H activity of the enzyme in the presence of the mappicine analog to the enzyme activity in the absence of the mappicine analog, multiplied by 100, and then subtracting this number from 100.\nAssay for Ribonuclease H Activity Based on Fluorescence Resonance Energy Transfer (FRET)\nPreparation of the Fluorophore-RNA/Quencher-DNA Hybrid Duplex Substrate.\nThe RNA/DNA hybrid duplex substrate for use in the assay comprises an RNA oligonucleotide of sequence 5′-GAU CUG AGC CUG GGA GCU-3′, modified at the 3′-end with Aminolink-2 and derivatized with fluorescein isothiocyanate, to provide a modified RNA oligonucleotide of the sequence 5′-GAU CUG AGC CUG GGA GCU-fluorescein-3′, annealed to a complementary DNA oligonucleotide of the sequence 5′-AGC TCC CAG GCT CAG ATC-3′ modified at the 5′-end with Aminolink-2 and derivatized with the FRET acceptor DABCYL succinimidyl ester, to provide a modified DNA oligonucleotide of the sequence 5′-DABCYL-AGC TCC CAG GCT CAG ATC-3′.\nTo prepare the 3′-fluorescein-RNA/5′-DABCYL-DNA hybrid duplex substrate, a known amount of 3′-fluorescein-RNA was dissolved in 20 mM Tris buffer (pH 8.0, 37° C.) to provide a final concentration of 5 μM. Two equivalents of the 5′-DABCYL-DNA oligonucleotide were added, and the mixture was heated to 90° C. for 5 min and cooled slowly to room temperature to allow duplex formation. The positioning of the fluorescein donor at the 3′-end of the RNA oligonucleotide and the DABCYL acceptor at the 5′-end of the DNA oligonucleotide provides a very close proximity of the donor and acceptor that results in a very intense quenching of the fluorescein emission in the intact RNA/DNA hybrid duplex substrate due to the spectral overlap of the fluorescence emission of fluorescein with the absorption spectrum of DABCYL. In addition, DABCYL is non-fluorescent, and thus cannot contribute any light emission. Both of these factors result in a very low background and provide a high signal-to-noise in the assay measurements. The ratio of the donor fluorescence in the absence and in the presence of its quencher is approximately fifteen-fold.\nMicroplate Assay Protocol for the Measurement of RNase H Activity Using the RNA/IDNA Hybrid Duplex Substrate.\nReaction assay mixtures contained 5 μl of a stock solution of 2.5 μM RNA/DNA hybrid duplex substrate added to 85 μl of assay buffer (50 mM Tris, pH 8.0, 37° C., containing 60 mM KCl and 2.5 mM MgCl2), prepared in the wells of a 96-well fluorescence microtiter plate, and warmed to 37° C. using the temperature control of the SpectraMax Gemini XS microplate spectrofluorometer (Molecular Devices). Reactions were started by the addition of 5 μl of a solution of recombinant HIV-1 reverse transcriptase (usually providing a final concentration of 2.5 nM of the p51/p66 RT heterodimer in the assay), and mixing using the automatic mixing function of the microplate spectrofluorometer. […]", "units": {"inhibition at 20 µM": "%", "% inhibition of RNase H at 20 μM": "%"}, "values": [{"smiles": "Cc1c(C(C)O)cc2n(c1=O)Cc1c-2nc2ccc(OC(F)(F)F)cc2c1-c1ccccc1", "note": "(stereo not drawn) [Compound 1.8.7, 7-(1-Hydroxyethyl)-8-methyl-12-phenyl-2-trifluoromethoxy-11H-indolizino[1,2-b]quinolin-9-one]", "inhibition at 20 µM": 80}, {"smiles": "CCC(C)C(O)c1cc2n(c(=O)c1C)Cc1c-2nc2ccc(C(F)(F)F)cc2c1-c1ccccc1", "note": "(stereo not drawn) [Compound 4.8.4]", "% inhibition of RNase H at 20 μM": 74}, {"smiles": "CCc1c2c(nc3ccc(C)cc13)-c1cc(C(O)C(C)CC)c(C)c(=O)n1C2", "note": "(stereo not drawn) [Compound 4.4.9]", "% inhibition of RNase H at 20 μM": 60}, {"smiles": "CCCc1c2c(nc3c(F)cccc13)-c1cc(C(O)CCC3CCCCC3)c(C)c(=O)n1C2", "note": "(stereo not drawn) [Compound 7.5.8]", "% inhibition of RNase H at 20 μM": 82}, {"smiles": "CCc1c2c(nc3c(F)cccc13)-c1cc(C(O)CCC3CCCCC3)c(C)c(=O)n1C2", "note": "(stereo not drawn) [Compound 7.4.8]", "% inhibition of RNase H at 20 μM": 95}, {"smiles": "CCCCc1c2c(nc3ccc(OC)cc13)-c1cc(C(O)CCC)c(C)c(=O)n1C2", "note": "(stereo not drawn) [Compound 2.6.3]", "% inhibition of RNase H at 20 μM": 67}, {"smiles": "CCCC(O)c1cc2n(c(=O)c1C)Cc1c-2nc2ccc(C)cc2c1-c1ccccc1", "note": "(stereo not drawn) [Compound 2.8.9, 7-(1-Hydroxybutyl)-2,8-dimethyl-1 2-phenyl-11H-indolizino[1,2-b]quinolin-9-one]", "inhibition at 20 µM": 78}, {"smiles": "CCCCCc1c2c(nc3c(F)cccc13)-c1cc(C(O)CC)c(C)c(=O)n1C2", "note": "(stereo not drawn) [Compound 3.7.8, 4-Fluoro-7-(1-hydroxypropyl)-8-methyl-12-pentyl-1 1H-indolizino [1,2-b]quinolin-9-one]", "inhibition at 20 µM": 82}, {"smiles": "CCC(O)c1cc2n(c(=O)c1C)Cc1c-2nc2ccccc2c1-c1ccccc1", "note": "(stereo not drawn) [Compound 3.8.1]", "% inhibition of RNase H at 20 μM": 74}, {"smiles": "CCc1ccc2nc3c(c(-c4ccccc4)c2c1)Cn1c-3cc(C(O)CCC2CCCCC2)c(C)c1=O", "note": "(stereo not drawn) [Compound 7.8.5]", "% inhibition of RNase H at 20 μM": 65}, {"smiles": "CCCCCc1c2c(nc3ccccc13)-c1cc(C(O)C3CCCCC3)c(C)c(=O)n1C2", "note": "(stereo not drawn) [Compound 6.7.1]", "% inhibition of RNase H at 20 μM": 71}, {"smiles": "CCCCCc1c2c(nc3ccc(C(F)(F)F)cc13)-c1cc(C(O)C3CCCCC3)c(C)c(=O)n1C2", "note": "(stereo not drawn) [Compound 6.7.4]", "% inhibition of RNase H at 20 μM": 70}, {"smiles": "CCC(C)C(O)c1cc2n(c(=O)c1C)Cc1cc3cc(OC(F)(F)F)ccc3nc1-2", "note": "(stereo not drawn) [Compound 4.1.7]", "% inhibition of RNase H at 20 μM": 55}, {"smiles": "CCCCc1c2c(nc3c1cn1c(=O)c(C)c(C(O)C(C)C)cc31)=CC=C(OC)C2", "note": "(stereo not drawn) [Compound 5.6.3, 12-Butyl-7-(1-hydroxy-2-methylpropyl)-2-methoxy-8-methyl-1H-indolizino[1,2-b]quinolin-9-one]", "inhibition at 20 µM": 90}, {"smiles": "Cc1ccc2nc3c(cc2c1)Cn1c-3cc(C(O)C2CCCCC2)c(C)c1=O", "note": "(stereo not drawn) [Compound 6.1.9]", "% inhibition of RNase H at 20 μM": 65}, {"smiles": "Cc1c(C(O)C2CCCCC2)cc2n(c1=O)Cc1c-2nc2ccc(C(F)(F)F)cc2c1-c1ccccc1", "note": "(stereo not drawn) [Compound 6.8.4, 7-(Cyclohexylhydroxymethyl)-8-methyl-12-phenyl-2-trifluoromethyl-11H-indolizino[1,2-b]quinolin-9-one]", "inhibition at 20 µM": 81}, {"smiles": "CCCCc1c2c(nc3ccc(OC(F)(F)F)cc13)-c1cc(C(C)O)c(C)c(=O)n1C2", "note": "(stereo not drawn) [Compound 1.6.7, 12-Butyl-7-(1-hydroxyethyl)-8-methyl-2-trifluoromethoxy-11H-indolizino[1,2-b]quinolin-9-one]", "inhibition at 20 µM": 75}, {"smiles": "Cc1c(C(O)C2CCCCC2)cc2n(c1=O)Cc1c-2nc2ccc(OC(F)(F)F)cc2c1-c1ccccc1", "note": "(stereo not drawn) [Compound 6.8.7, 7-(Cyclohexylhydroxymethyl)-8-methyl-1 2-phenyl-2-trifluoromethoxy-11H-indolizino[1,2-b]quinolin-9-one]", "inhibition at 20 µM": 87}, {"smiles": "CCCCc1c2c(nc3ccc(OC)cc13)-c1cc(C(O)CC)c(C)c(=O)n1C2", "note": "(stereo not drawn) [Compound 3.6.3]", "% inhibition of RNase H at 20 μM": 66}, {"smiles": "CCCCCc1c2c(nc3ccc(OC)cc13)-c1cc(C(O)CCC)c(C)c(=O)n1C2", "note": "(stereo not drawn) [Compound 2.7.3]", "% inhibition of RNase H at 20 μM": 60}, {"smiles": "Cc1ccc2nc3c(c(-c4ccccc4)c2c1)Cn1c-3cc(C(O)CCC2CCCCC2)c(C)c1=O", "note": "(stereo not drawn) [Compound 7.8.9]", "% inhibition of RNase H at 20 μM": 61}, {"smiles": "CCc1c2c(nc3ccc(F)cc13)-c1cc(C(O)C3CCCCC3)c(C)c(=O)n1C2", "note": "(stereo not drawn) [Compound 6.4.2]", "% inhibition of RNase H at 20 μM": 75}, {"smiles": "CCc1c2c(nc3ccc(C(F)(F)F)cc13)-c1cc(C(O)C(C)C)c(C)c(=O)n1C2", "note": "(stereo not drawn) [Compound 5.4.4, 1 2-Ethyl-7-(1-hydroxy-2-methylpropyl)-8-methyl-2-trifluoromethyl-11H-indolizino[1,2-b]quinolin-9-one]", "inhibition at 20 µM": 87}, {"smiles": "CCCc1c2c(nc3c(F)cccc13)-c1cc(C(O)C(C)CC)c(C)c(=O)n1C2", "note": "(stereo not drawn) [Compound 4.5.8]", "% inhibition of RNase H at 20 μM": 55}, {"smiles": "CCc1c2c(nc3ccccc13)-c1cc(C(O)C3CCCCC3)c(C)c(=O)n1C2", "note": "(stereo not drawn) [Compound 6.4.1]", "% inhibition of RNase H at 20 μM": 65}, {"smiles": "Cc1ccc2nc3c(c(-c4ccccc4)c2c1)Cn1c-3cc(C(C)O)c(C)c1=O", "note": "(stereo not drawn) [Compound 1.8.9, 7-(1-Hydroxyethyl)-2,8-dimethyl-1 2-phenyl-11H-indolizino[1,2-b]quinolin-9-one]", "inhibition at 20 µM": 75}, {"smiles": "CCc1c2c(nc3ccc(OC)cc13)-c1cc(C(O)C3CCCCC3)c(C)c(=O)n1C2", "note": "(stereo not drawn) [Compound 6.4.3]", "% inhibition of RNase H at 20 μM": 60}, {"smiles": "CCCCCc1c2c(nc3ccc(OC)cc13)-c1cc(C(O)C3CCCCC3)c(C)c(=O)n1C2", "note": "(stereo not drawn) [Compound 6.7.3]", "% inhibition of RNase H at 20 μM": 65}, {"smiles": "CCCCCc1c2c(nc3ccc(C)cc13)-c1cc(C(O)CC)c(C)c(=O)n1C2", "note": "(stereo not drawn) [Compound 3.7.9, 7-(1-Hydroxypropyl)-2,8-dimethyl-1 2-pentyl-11H-indolizino[1,2-b]quinolin-9-one]", "inhibition at 20 µM": 75}, {"smiles": "CCCCCc1c2c(nc3ccc(C(F)(F)F)cc13)-c1cc(C(O)CCC3CCCCC3)c(C)c(=O)n1C2", "note": "(stereo not drawn) [Compound 7.7.4]", "% inhibition of RNase H at 20 μM": 75}, {"smiles": "CCc1c2c(nc3ccc(C(F)(F)F)cc13)-c1cc(C(O)C3CCCCC3)c(C)c(=O)n1C2", "note": "(stereo not drawn) [Compound 6.4.4]", "% inhibition of RNase H at 20 μM": 65}, {"smiles": "CCCC(O)c1cc2n(c(=O)c1C)Cc1c-2nc2ccccc2c1-c1ccccc1", "note": "(stereo not drawn) [Compound 2.8.1, 7-(1-Hydroxybutyl)-8-methyl-12-phenyl-11H-indolizino [1,2-b]quinolin-9-one]", "inhibition at 20 µM": 83}, {"smiles": "CCCCCc1c2c(nc3ccc(CC)cc13)-c1cc(C(O)C(C)CC)c(C)c(=O)n1C2", "note": "(stereo not drawn) [Compound 4.7.5, 2-Ethyl-7-(1-hydroxy-2-methylbutyl)-8-methyl-1 2-pentyl-11H-indolizino[1,2-b]quinolin-9-one]", "inhibition at 20 µM": 100}, {"smiles": "Cc1c(C(O)CCC2CCCCC2)cc2n(c1=O)Cc1c-2nc2ccc(Cl)cc2c1-c1ccccc1", "note": "(stereo not drawn) [Compound 7.8.6]", "% inhibition of RNase H at 20 μM": 90}, {"smiles": "CCCCCc1c2c(nc3ccc(C(F)(F)F)cc13)-c1cc(C(O)C(C)CC)c(C)c(=O)n1C2", "note": "(stereo not drawn) [Compound 4.7.4]", "% inhibition of RNase H at 20 μM": 55}, {"smiles": "CCCCc1c2c(nc3ccc(CC)cc13)-c1cc(C(O)C(C)C)c(C)c(=O)n1C2", "note": "(stereo not drawn) [Compound 5.6.5]", "% inhibition of RNase H at 20 μM": 100}]}]}
